# Experimental data as given in patent US20090270342A1, “IMMUNOREGULATORY AGENT” (priority 2006, published 2009).
# System: Peyer's patch cells
# Experiment: Production of IgA, IgG and cytokines by Peyer's patch cells of mice fed lactosucrose (Experiment 3)
# Type: in vivo
# Details: for IFN-γ produced by Peyer's patch cells / IL-4 produced by Peyer's patch cells / IL-6 produced by Peyer's patch cells / IgA produced by Peyer's patch cells / IgG produced by Peyer's patch cells / TGF-β produced by Peyer's patch cells / IL-10 produced by Peyer's patch cells: four weeks
# Procedure: In order to investigate what type of immunopathologically-mediated tissue exerts the enhancing effect on gut immunity, the amounts of IgA, IgG, and various cytokines were measured. Similarly as in Experiment 1, female BALB/c mice (six weeks old) were preliminary reared for one week on “AIN-93G”, the same standard purified diet as used in Experiment 1. Successively, “LS-90P”, a saccharide composition comprising 91.8% (w/w), on a dry solid basis, of lactosucrose commercialized by ENSUIKO Sugar Refining Co., Ltd., Tokyo, Japan, was incorporated into the above purified diet, in which corn starch equal to the amount of the saccharide composition comprising lactosucrose had been removed, to give a lactosucrose content of 2% (w/w) or 5% (w/w), and five mice/group were allowed to ingest the resulting test diet freely. Mice, allowed to ingest “AIN-93G”, as the standard purified diet, were used as control. At four weeks after starting the administration of the test diet, Peyer's patch and intestinal lymph nodes were respectively removed from the mice and cut using a scissor. Then, the resultants were respectively treated in 0.2% (w/v) aqueous collagenase solution at 37° C. for 30 min, and filtrated using a cell strainer to obtain cell suspensions. Each cell suspension was centrifuged to collect cells and the resulting cells were suspended into a 45% (v/v) solution of “PERCOLL”, commercialized by GE Healthcare, to make into a cell suspension. Each resulting suspension was successively placed on a 75% (v/v) “PERCOLL” solution and centrifuged at 1,000×g for 10 min. Cells in a boundary phase between 45% (v/v) and 75% (v/v) “PERCOLL” solution were collected and suspended in RPMI1640 medium comprising 10% FCS and 10 mM HEPES, and the cell concentration was adjusted to 1×10^6 cells/ml. The resulting cell suspension was placed in a 24-well plate to give one ml/well each. Then, 2 μg/ml of Concanavaline A (Con A) as a stimulator to T-cell or 10 μg/ml of lipopolysaccharide (LPS) as a stimulator to B-cell and macrophage cell was admixed with the cell suspension, and then the cells were cultured at 37° C. for 48 hours using 5% (v/v) carbon dioxide gas. A culture supernatant was collected from each well, and the amounts of IgA, IgG, IFN-γ, interleukin-4 (IL-4), IL-6, interleukin-10 (IL-10), and TGF-β were measured by ELISA using an anti-mouse IgA antibody, anti-mouse IgG antibody, anti-mouse IFN-γ antibody (commercialized by Pepro Tech EC. Ltd.), anti-mouse IL-4 antibody (commercialized by R&D Systems), anti-mouse IL-6 antibody (commercialized by R&D Systems), anti-mouse IL-10 antibody (commercialized by R&D Systems), and anti-mouse TGF-β antibody (commercialized by Promega Co., Wisconsin, USA), and the average values of those from five mice were determined. The results for Peyer's patch cells and intestinal lymph node cells are respectively in Tables 3 and 4. The percentages in parentheses in the tables mean a relative value to the amount of IgA, IgG, IFN-γ, IL-4, IL-6, IL-10 or TGF-β produced by Peyer's patch cells or intestinal lymph node cells from the control mice.
# [1] = Lactosucrose 2% (w/w) diet, Con A
# [2] = Lactosucrose 2% (w/w) diet, LPS
# [3] = Lactosucrose 5% (w/w) diet, Con A
# [4] = Lactosucrose 5% (w/w) diet, LPS
smiles,measurement,setting,value
"OC[C@H]1O[C@@H](O[C@H]2[C@H](O)[C@@H](O)[C@@H](O[C@]3(CO)O[C@H](CO)[C@@H](O)[C@@H]3O)O[C@@H]2CO)[C@H](O)[C@@H](O)[C@H]1O [Lactosucrose, β-D-galactosyl-(1,4)-α-D-glucosyl-(1,2)-β-D-fructoside]",IFN-γ produced by Peyer's patch cells,[1],11 ± 5.0 ng/mL
same,IL-4 produced by Peyer's patch cells,[1],22 ± 0.58 pg/mL
same,IL-6 produced by Peyer's patch cells,[1],35 ± 14 pg/mL
same,IgA produced by Peyer's patch cells,[1],1.9 ± 0.49 µg/mL
same,IgG produced by Peyer's patch cells,[1],110 ± 28 ng/mL
same,TGF-β produced by Peyer's patch cells,[1],0.40 ± 0.24 ng/mL
same,IL-10 produced by Peyer's patch cells,"Lactosucrose 2% (w/w) diet, Con A, DL: Detection limit",Below DL*
same,IFN-γ produced by Peyer's patch cells,[2],1.2 ± 0.44 ng/mL
same,IL-4 produced by Peyer's patch cells,[2],15 ± 1.6 pg/mL
same,IL-6 produced by Peyer's patch cells,[2],250 ± 27 pg/mL
same,IL-10 produced by Peyer's patch cells,[2],200 ± 57 pg/mL
same,IgA produced by Peyer's patch cells,[2],1.9 ± 1.8 µg/mL
same,IgG produced by Peyer's patch cells,[2],110 ± 90 ng/mL
same,TGF-β produced by Peyer's patch cells,[2],1.3 ± 0.20 ng/mL
same,"IFN-γ produced by Peyer's patch cells, relative value to control","Lactosucrose 2% (w/w), Con A",(100%)
same,"IL-4 produced by Peyer's patch cells, relative value to control","Lactosucrose 2% (w/w), Con A",(105%)
same,"IL-6 produced by Peyer's patch cells, relative value to control","Lactosucrose 2% (w/w), Con A",(106%)
same,"IgA produced by Peyer's patch cells, relative value to control","Lactosucrose 2% (w/w), Con A",(127%)
same,"IgG produced by Peyer's patch cells, relative value to control","Lactosucrose 2% (w/w), Con A",(151%)
same,"TGF-β produced by Peyer's patch cells, relative value to control","Lactosucrose 2% (w/w), Con A",(133%)
same,"IFN-γ produced by Peyer's patch cells, relative value to control","Lactosucrose 2% (w/w), LPS",(146%)
same,"IL-4 produced by Peyer's patch cells, relative value to control","Lactosucrose 2% (w/w), LPS",(107%)
same,"IL-6 produced by Peyer's patch cells, relative value to control","Lactosucrose 2% (w/w), LPS",(114%)
same,"IL-10 produced by Peyer's patch cells, relative value to control","Lactosucrose 2% (w/w), LPS",(95%)
same,"IgA produced by Peyer's patch cells, relative value to control","Lactosucrose 2% (w/w), LPS",(216%)
same,"IgG produced by Peyer's patch cells, relative value to control","Lactosucrose 2% (w/w), LPS",(244%)
same,"TGF-β produced by Peyer's patch cells, relative value to control","Lactosucrose 2% (w/w), LPS",(100%)
same,IFN-γ produced by Peyer's patch cells,[3],21 ± 13 ng/mL
same,IL-4 produced by Peyer's patch cells,[3],20 ± 0.74 pg/mL
same,IL-6 produced by Peyer's patch cells,[3],84 ± 39 pg/mL
same,IgA produced by Peyer's patch cells,[3],4.5 ± 2.6 µg/mL
same,IgG produced by Peyer's patch cells,[3],270 ± 120 ng/mL
same,TGF-β produced by Peyer's patch cells,[3],0.66 ± 0.13 ng/mL
same,IL-10 produced by Peyer's patch cells,"Lactosucrose 5% (w/w) diet, Con A, DL: Detection limit",Below DL*
same,IFN-γ produced by Peyer's patch cells,[4],3.0 ± 2.1 ng/mL
same,IL-4 produced by Peyer's patch cells,[4],14 ± 0.88 pg/mL
same,IL-6 produced by Peyer's patch cells,[4],470 ± 250 pg/mL
same,IL-10 produced by Peyer's patch cells,[4],160 ± 56 pg/mL
same,IgA produced by Peyer's patch cells,[4],7.0 ± 4.0 µg/mL
same,IgG produced by Peyer's patch cells,[4],370 ± 150 ng/mL
same,TGF-β produced by Peyer's patch cells,[4],1.2 ± 0.090 ng/mL
same,"IFN-γ produced by Peyer's patch cells, relative value to control","Lactosucrose 5% (w/w), Con A",(191%)
same,"IL-4 produced by Peyer's patch cells, relative value to control","Lactosucrose 5% (w/w), Con A",(95%)
same,"IL-6 produced by Peyer's patch cells, relative value to control","Lactosucrose 5% (w/w), Con A",(255%)
same,"IgA produced by Peyer's patch cells, relative value to control","Lactosucrose 5% (w/w), Con A",(300%)
same,"IgG produced by Peyer's patch cells, relative value to control","Lactosucrose 5% (w/w), Con A",(370%)
same,"TGF-β produced by Peyer's patch cells, relative value to control","Lactosucrose 5% (w/w), Con A",(220%)
same,"IFN-γ produced by Peyer's patch cells, relative value to control","Lactosucrose 5% (w/w), LPS",(366%)
same,"IL-4 produced by Peyer's patch cells, relative value to control","Lactosucrose 5% (w/w), LPS",(100%)
same,"IL-6 produced by Peyer's patch cells, relative value to control","Lactosucrose 5% (w/w), LPS",(214%)
same,"IL-10 produced by Peyer's patch cells, relative value to control","Lactosucrose 5% (w/w), LPS",(76%)
same,"IgA produced by Peyer's patch cells, relative value to control","Lactosucrose 5% (w/w), LPS",(795%)
same,"IgG produced by Peyer's patch cells, relative value to control","Lactosucrose 5% (w/w), LPS",(822%)
same,"TGF-β produced by Peyer's patch cells, relative value to control","Lactosucrose 5% (w/w), LPS",(92%)
